Test results published in patent US4659721A, “Alkanol derivatives, and pharmaceutical preparation containing these compounds” (Ludwig Heumann & Co. GmbH, priority 1984, dated 1987).

Assays:
[1] = therapeutic use, several daily doses of tablets with dose units of 160 to 300 mg; cited from earlier work
histamine-H2 receptors = molecular target: T1, histamine-H2 receptors (Rattus norvegicus, UniProt P25102); experiment: Gosh-Schild rat (Stimulator: histamine); assay type: in vivo; details: iv, i.V., read-out: ID50 (the source's name)
T1 construct: from tissue; host or cells: rat stomach, perfused (in vivo Ghosh-Schild preparation)
Excerpt: These compounds also antagonize the histamine action on the frequency of contraction of the isolated right atrium of the guinea-pig but have no effect on histamine induced contractions of isolated, smooth gastrointestinal muscle when these are produced by […].
Experimental model: Gosh-Schild rat

T1 sequence (P25102 whole entry, the tested form may be a part): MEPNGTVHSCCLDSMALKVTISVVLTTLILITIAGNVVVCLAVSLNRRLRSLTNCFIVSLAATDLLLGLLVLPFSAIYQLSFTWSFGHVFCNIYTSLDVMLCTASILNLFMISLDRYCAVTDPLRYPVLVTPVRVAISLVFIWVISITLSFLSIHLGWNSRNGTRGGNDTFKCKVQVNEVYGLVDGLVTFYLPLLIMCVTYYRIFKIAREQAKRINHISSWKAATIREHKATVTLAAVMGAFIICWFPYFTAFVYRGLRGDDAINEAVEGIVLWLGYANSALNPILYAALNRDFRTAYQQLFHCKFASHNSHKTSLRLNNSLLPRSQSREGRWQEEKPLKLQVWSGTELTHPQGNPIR

SMILES | half life [1] | ED50 (histamine-H2 receptors) [µmol/kg]
CN/C(=N/CCSCc1nc[nH]c1C)NC#N [Cimetidine] | relatively short | 1.4
Nc1n[s+]([O-])nc1NCC(O)COCc1cccc(CN2CCCCC2)c1 (stereo not shown) [Example 1, 3-[2-Hydroxy-3-[3-(1-piperidylmethyl)-benzyloxy]propylamino]-4-amino-1,2,5-thiadiazole-1-oxide] |  | 0.075
CNC(=C[N+](=O)[O-])NCCSCc1ccc(CN(C)C)o1 [ranitidine] | relatively short | 
